Test results published in US20090111786A1, “Compounds that Prevent Macrophage Apoptosis and Uses Thereof” (priority 2004, published 2009).

Assays:
[1] = system: bone marrow-derived macrophages (BMDMs); experiment: Macrophage apoptosis on M-CSF withdrawal, sub-G1 DNA content by flow cytometry (PI); assay type: cell-based, mouse; settings: for increase in cells with sub-G1 DNA content (apoptosis-induced DNA fragmentation): BMDMs pre-incubated with agonist, then cultured without M-CSF
[2] = system: AIM (Apoptosis Inhibitor expressed by Macrophages) mRNA; experiment: AIM mRNA expression by Northern blotting; settings: differentiated macrophages; T1317: at 12 to 24 h of stimulation; EC 10 μM
[3] = system: WT and LXR−/− macrophages; experiment: Cycloheximide-induced macrophage apoptosis, DNA fragmentation; assay type: cell-based, mouse; settings: for apoptotic process induced by CHX (DNA fragmentation): preincubation 24 h
macrophages = experiment: Cycloheximide-induced general caspase activity, fluorimetric; assay type: cell-based, mouse; settings: macrophages treated with CHX 10 μg/ml, 5 h
[4] = system: LPS-dependent gene expression in macrophages; experiment: Microarray analysis of LPS (TLR4)-induced apoptotic gene program; settings: 9cRA alone
Description: Microarray analysis: In one embodiment, large numbers of genes were assayed for relative expression levels using one or more of an Affymetrix U74A array and a Codelink Uniset 1 mouse array. Total RNA was isolated and purified using Trizol reagent (Invitrogen Life Technologies, Carlsbad, Calif.) and RNeasy columns (Qiagen, Valencia, Calif.). cRNA was generated from 10 μg total RNA using Superscript (Invitrogen) and the High Yield RNA transcription labeling kit (Enzo Biochem. Inc., Farmingdale, N.Y.). Duplicate samples of fragmented cRNA were hybridized to Affymetrix U74A arrays or Codelink Uniset 1 mouse arrays according to manufacture's instruction. Data was analyzed with Microarray Suite (Affymetrix, Santa Clara, Calif.) and Genespring software (Silicongenetics, Redwood City, Calif.).
An additional series of microarray experiments was performed to evaluate the influence of LXR activation on regulation of the apoptotic program induced by engagement of TLR4 (FIG. 4). Macrophages were incubated with GW3965 or vehicle for 16 h and then treated with LPS for 6 hours.
Macrophages were incubated with the LXR agonist GW3965 (1 μM) or vehicle for 16 h prior to treatment with LPS (100 ng/ml) for 6 h. Total RNA was subjected to microarray analysis using Codelink Mouse Uniset 1 microarrays.

SMILES	increase in cells with sub-G1 DNA content (apoptosis-induced DNA fragmentation) [1]	AIM mRNA levels [2]	further results
C[C@H](CC[C@@H]1OC1(C)C)[C@H]1CC[C@H]2[C@@H]3CC=C4C[C@@H](O)CC[C@]4(C)[C@H]3CC[C@]12C [EC, 24(S),25-epoxycholesterol]	attenuated	induced	–
C[C@@H]1C[C@@H]([C@H](O)CC2CC(=O)NC(=O)C2)C(=O)[C@@H](C)C1 [CHX, cycloheximide]	–	–	DNA fragmentation ([3]; macrophages treated with CHX 10 μg/ml, 6 h): increased; caspase activation (macrophages): increased
O=C(O)Cc1cccc(OCCCN(Cc2cccc(C(F)(F)F)c2Cl)CC(c2ccccc2)c2ccccc2)c1 [GW3965]	attenuated	–	–
O=S(=O)(c1ccccc1)N(CC(F)(F)F)c1ccc(C(O)(C(F)(F)F)C(F)(F)F)cc1 [T1317]	attenuated	highly induced	apoptotic process induced by CHX (DNA fragmentation) ([3]; LXR-deficient macrophages): not; apoptotic process induced by CHX (DNA fragmentation) ([3]; […]): attenuated
CC1=C(/C=C/C(C)=C\C=C\C(C)=C\C(=O)O)C(C)(C)CCC1 [9cRA, 9-cis retinoic acid]	little effect	–	effect on the action of the LXR-specific agonists on sub-G1 content ([1]; 9cRA combined with T1317, GW3965 or EC, M-CSF withdrawal): markedly enhanced; inhibitory activity on LPS-dependent gene expression [4]: very little inhibitory activity
